# According to patent publication US11857584B2, “Oncolytic virus growth method and antitumor agent” (KABUSHIKI KAISHA YAKULT HONSHA, priority 2017, dated 2024):
# What was measured:
# CVA11 = test: Promotion of CVA11 proliferation (virus titer) in WiDr cells; assay type: cell-based, coxsackievirus A11; details: then CVA11 MOI 0.01, about 30 hours, t-test
# CVB3 = test: Promotion of CVB3 proliferation (virus titer) in WiDr cells; assay type: cell-based, coxsackievirus B3
# [1] = test system: ICAM-1 (intercellular adhesion molecule 1); test: Virus receptor expression by real-time PCR in WiDr cells, ICAM-1; assay type: cell-based, human; details: oxaliplatin 50 μM about 42 hours, or CVA11 added about 20 hours after seeding, t-test
# Procedure: (§1) The cultured oxaliplatin-resistant colon cancer cell line (WiDr) was suspended in DMEM medium at 3×10^6 cells/mL. To each well of a 96-well plate, 100 μl of the obtained cell suspension was dispensed and the cells were seeded at 3×10^5 cells/well. […] Thereafter, the plate was allowed to stand for about 42 hours at 37° C., 5% CO2, and then mRNA was collected to prepare cDNA. […] The expressions of DAF (decay accelerating factor) and ICAM-1 (intercellular adhesion molecule 1) were compared by real-time PCR. The t-test was used as the test.
# [2] = Body weight change (adverse event) in WiDr-bearing nude mice; details: oxaliplatin 100 μg i.p. day 1; CVA11 5×10^7 PFU intratumoral days 2, 4, 6, 8, 10
# Procedure: WiDr was washed with PBS and suspended in OPTI-MEM I at 5.0×10^7 cells/mL. 100 μl of the suspension containing WiDr was injected subcutaneously with a 27 G needle into the right flank of BALB/c nude mice of 6-8 weeks old. […] The tumor volume was calculated by major axis×minor axis×minor axis×0.5. The test was conducted using 5 mice in each group, and the t-test was used as the test.
# AAV = test: Promotion of AAV proliferation (virus copy number, real-time PCR) in WiDr cells; assay type: cell-based
# Procedure: pAAV-CMV Vector (manufactured by Takara Bio Co., Ltd.) was used as AAV. pAAV-CMV Vector was prepared using AAVpro (registered trademark) Helper Free System (manufactured by Takara Bio Co., Ltd.). The collected supernatant (virus solution) was stored at −80° C.
# The cultured oxaliplatin-resistant colon cancer cell line (WiDr) was suspended in DMEM medium at […]. To each well of a 96-well plate, 100 μl of the obtained cell suspension was dispensed and the cells were seeded at 3×10^5 cells/well. […] Subsequently, the plate was allowed to stand for about 24 hours at 37° C., 5% CO2, and then AAV was added thereto at a MOI of 0.01. After the plate was allowed to stand for about 30 hours at 37° C., 5% CO2, virus copy numbers were measured using AAVpro (registered trademark) Titration Kit (for Real Time PCR) Ver.2 (manufactured by Takara Bio Co., Ltd.). The t-test was used as the test.
# [3] = test system: DAF (decay accelerating factor); test: Virus receptor expression by real-time PCR in WiDr cells, DAF; assay type: cell-based, human; details: oxaliplatin 50 μM about 42 hours, or CVA11 added about 20 hours after seeding, t-test
# Procedure: as §1
structure (smiles),measurement,setting,value
"O=c1[nH]cc(F)c(=O)[nH]1 [5-FU, 5-fluorouracil]",CVA11 virus load (virus titer),CVA11; 5-FU 50 μM,significant increase in CVA11 virus load
"CCc1c2c(nc3ccc(O)cc13)-c1cc3c(c(=O)n1C2)COC(=O)[C@]3(O)CC [SN-38, 7-ethyl-10-hydroxycamptothecin]",CVA11 virus load (virus titer),"CVA11; SN-38 1.0, 5.0 or 50 μM",significant increase in CVA11 virus load
N.N.[Cl][Pt][Cl] [cisplatin],CVB3 virus load (virus titer),"CVB3; cisplatin 0.5 or 1.0 μM, then CVB3 MOI 0.01",no increase in CVB3 virus load was observed
O=C1[O][Pt]2([NH][C@@H]3CCCC[C@H]3[NH]2)[O]C1=O [oxaliplatin],expression of ICAM-1 (real-time PCR),[1],significantly increased
same,"body weight loss, compared with untreated group",[2],no significant weight loss was observed
same,copy number of AAV,"AAV; oxaliplatin 0.25, 0.5, 1.0 or 2.5 μM, then AAV MOI 0.01, about 30 hours, t-test","significant, increase in the copy number of AAV"
same,copy number of AAV,"AAV; oxaliplatin 0.25 to 1.0 μM, then AAV MOI 0.01",remarkable increase
same,expression of DAF (real-time PCR),[3],significantly increased
same,CVA11 virus load (virus titer),"CVA11; oxaliplatin 50 μM, vs CVA11 only",significant increase in CVA11 virus load
same,CVB3 virus load (virus titer),"CVB3; oxaliplatin 1 μM, then CVB3 MOI 0.01, t-test",significant increase
same,CVB3 virus load (virus titer),"CVB3; oxaliplatin 0.5 or 1.0 μM, then CVB3 MOI 0.01, about 30 hours",increase in CVB3 virus load was observed
